# Laboratory results published in patent US6872745B2, “Antipicornaviral compounds and compositions, their pharmaceutical uses, and materials for their synthesis” (Agouron Pharmaceuticals, Inc., priority 2000, dated 2005).
# What was measured:
# [1] = target: T1, rhinovirus 3C protease, serotype 14 (Human rhinovirus 14, UniProt P03303); assay: Inhibition of rhinovirus 3C protease (FRET assay, enzyme start); format: biochemical; settings: HRV-14 3C protease, progress curves, read-out: Kobs/I
# T1 construct: Recombinant rhinovirus 3C proteases; made in house
# Protocol: Stock solutions (50 mM, in DMSO) of various compounds were prepared; dilutions were in the same solvent. Recombinant rhinovirus 3C proteases (see Birch et al., “Purification of recombinant human rhinovirus 14 3C protease expressed in Escherichia coli,” Protein Expr. Pur. (1995), vol. 6(5), 609-618) from serotypes 14, 16, and 2 were prepared by the following standard chromatographic procedures: (1) ion exchange using Q Sepharose Fast Flow from Pharmacia; (2) affinity chromatography using Affi-Gel Blue from Biorad; and (3) sizing using Sephadex G-100 from Pharmacia. Each assay sample contained 2% DMSO, 50 mM tris pH 7.6, 1 mM EDTA, a test compound at the indicated concentration, approximately 1 μM substrate, and 50-100 nM protease. The kobs/I values were obtained from reactions initiated by addition of enzyme rather than substrate. RVP activity was measured in the fluorescence resonance energy transfer assay. The substrate was (N-terminal) DABCYL-(Gly-Arg-Ala-Val-Phe-Gln-Gly-Pro-Val-Gly)-EDANS. In the uncleaved peptide, the EDANS fluorescence was quenched by the proximal DABCYL moiety. When the peptide was cleaved, the quenching was relieved, and activity was measured as an increase in fluorescence signal. The tabulated data in the column designated kobs/[I] were measured from progress curves in enzyme start experiments.
# [2] = Cytotoxicity in mock-infected cells of the antirhinoviral assay (XTT); format: cell-based; settings: human, H1-HeLa cells, table line HRV-14
# Protocol: (§1) In this cell protection assay, the ability of compounds to protect cells against HRV infection was measured by the XTT dye reduction method, which is described in Weislow et al., J. Natl. Cancer Inst. (1989), vol. 81, 577-586. H1-HeLa cells were infected with HRV-14 at a multiplicity of infection (m.o.i.) of 0.13 (virus particles/cell) or mock-infected with medium only. Infected or mock-infected cells were resuspended at 8×10^5 cells per ml, and incubated with appropriate concentrations of the compounds to be tested. Two days later, XTT/PMS was added to test plates and the amount of formazan produced was quantified spectrophotometrically at 450/650 nm. The EC50 value was calculated as the concentration of compound that increased the percentage of formazan production in compound-treated, virus-infected cells to 50% of that produced by compound-free, mock-infected cells. The 50% cytotoxic dose (CC50) was calculated as the concentration of compound that decreased the percentage of formazan produced in compound-treated, mock-infected cells to 50% of that produced by compound-free, mock-infected cells. The therapeutic index (TI) was calculated by dividing the CC50 value by the EC50 value.
# (§2) All strains of human rhinovirus (HRV) for use in this assay were purchased from American Type Culture Collection (ATCC), except for HRV serotype-14 (produced from the infectious cDNA clone constructed by Dr. Robert Rueckert, Institute for Molecular Virology, University of Wisconsin, Madison, Wis.). HRV stocks were propagated and viral assays were performed in H1-HeLa cells (ATCC). Cells were grown in minimal essential medium with 10% fetal bovine serum, available from Life Technologies (Gaithersburg, Md.).
# HRV-14 = assay: Antirhinoviral H1-HeLa cell culture assay (XTT cell protection); format: cell-based, human rhinovirus; settings: Rhinovirus B, HRV14, H1-HeLa, HRV-14, H1-HeLa cells
# Protocol: as §1, §2
# T1 sequence (P03303 1538-1719): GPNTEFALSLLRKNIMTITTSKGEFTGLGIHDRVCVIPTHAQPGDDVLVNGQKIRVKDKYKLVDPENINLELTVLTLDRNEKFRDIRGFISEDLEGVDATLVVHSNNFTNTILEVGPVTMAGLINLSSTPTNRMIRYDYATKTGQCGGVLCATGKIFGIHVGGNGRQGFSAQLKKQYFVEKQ
Structure (SMILES),kinact/KI [1],EC50 (HRV-14),CC50 at 2 days [2]
"CCOC(=O)/C=C/[C@H](CCC(N)=O)NC(=O)CNC(=O)c1ccc(-c2ccccc2C(F)(F)F)[nH]1 [Compound 20, 6-Carbamoyl-4S-(2S-{[5-(2-trifluoromethyl-phenyl)-1H-pyrrole-2-carbonyl]-amino}-acetylamino)-hex-2(trans)-enoic acid ethyl ester]",330 M⁻¹ s⁻¹,16400 nM,> 100000 nM
"C#CC[C@H](NC(=O)c1ccc(-c2ccccc2C(F)(F)F)[nH]1)C(=O)N[C@H](/C=C/C(=O)OCC)CCC(N)=O [Compound 16, 6-Carbamoyl-4S-(2S-{[5-(2-trifluoromethyl-phenyl)-1H-pyrrole-2-carbonyl]-amino}-pent-4-ynoylamino)-hex-2(trans)-enoic acid ethyl ester]",7100 M⁻¹ s⁻¹,1320 nM,> 10000 nM
"CCOC(=O)/C=C/[C@H](CCC(N)=O)NC(=O)[C@H](CC(C)C)NC(=O)c1ccc(-c2ccccc2C(F)(F)F)[nH]1 [Compound 17, 6-Carbamoyl-4S-(4-methyl-2S-{[5-(2-trifluoromethyl-phenyl)-1H-pyrrole-2-carbonyl]-amino}-pentanoylamino)-hex-2(trans)-enoic acid ethyl ester]",2900 M⁻¹ s⁻¹,2190 nM,> 10000 nM
"CCOC(=O)/C=C/[C@H](CCC(N)=O)NC(=O)[C@H](Cc1ccccc1)NC(=O)c1ccc(CCC(F)(F)F)[nH]1 [Compound 22, 6-Carbamoyl-4S-(3-phenyl-2S-{[5-(3,3,3-trifluoro-propyl)-1H-pyrrole-2-carbonyl]-amino}-propionylamino)-hex-2(trans)-enoic acid ethyl ester]",4400 M⁻¹ s⁻¹,5720 nM,> 10000 nM
"O=C1OCC/C1=C\[C@H](C[C@@H]1CCNC1=O)NC(=O)C(CC(=O)c1ccc[nH]1)Cc1ccc(F)cc1 (stereo partly drawn) [Compound 34, 2-(R,S)-(4-Fluorobenzyl)-4-oxo-N-[2-(2-oxo-dihydro-furan-3-ylidine)-1S-(2-oxo-pyrrolidin-3S-ylmethyl)-ethyl]-4-(1H-pyrrol-2-yl)-butyramide]",520 M⁻¹ s⁻¹,,
"O=C1OCC/C1=C\[C@H](C[C@@H]1CCNC1=O)NC(=O)[C@H](CC(=O)c1ccc(-c2cccc3ccccc23)[nH]1)Cc1ccc(F)cc1 [Compound 32, 2-(R,S)-(4-Fluorobenzyl)-4-(5-naphthalen-1-yl-1H-pyrrol-2-yl)-4-oxo-N-[2-(2-oxo-dihydro-furan-3-ylidine)-1S-(2-oxo-pyrrolidin-3S-ylmethyl)-ethyl]-butyramide]",8300 M⁻¹ s⁻¹,,
"CCOC(=O)/C=C/[C@H](C[C@@H]1CCNC1=O)NC(=O)CCC(=O)c1ccccc1 [Compound 44, 4S-(4-oxo-4-phenyl-butyrylamino)-5-(2-oxo-pyrrolidin-3S-yl)-pent-2-enoic acid ethyl ester]",1030 M⁻¹ s⁻¹,,
"CCOC(=O)/C=C/[C@H](C[C@@H]1CCNC1=O)NC(=O)[C@H](Cc1ccc(F)cc1)NC(=O)c1cc2ccccc2[nH]1 [Compound 42, Ethyl-3-{(Indole-2-carboxylic acid)-L-(4-F-Phe)-L-[(S)-Pyrrol-Ala]}-E-Propenoate]",42 M⁻¹ s⁻¹,,

# More lines, main results first:
kinact/KI [1],EC50 (HRV-14),Structure (SMILES),CC50 at 2 days [2]
32400 M⁻¹ s⁻¹,64 nM,"CCOC(=O)/C=C/[C@H](CCC(N)=O)NC(=O)[C@H](Cc1ccccc1)NC(=O)c1ccc(-c2ccccc2C(F)(F)F)[nH]1 [Compound 2, 6-Carbamoyl-4S-{3-phenyl-2S-[(5-(2-trifluoromethyl-phenyl)-1H-pyrrole-2-carbonyl)-amino]-propionylamino}-hex-2(trans)-enoic acid ethyl ester]",> 10000 nM
6570 M⁻¹ s⁻¹,2010 nM,"CCOC(=O)/C=C/[C@H](CCC(N)=O)NC(=O)[C@H](Cc1ccccc1)NC(=O)c1ccc(C(C)CC(F)(F)F)[nH]1 (stereo partly drawn) [Compound 13, 6-Carbamoyl-4S-(3-phenyl-2S-{[5-(3,3,3-trifluoro-1 methyl-propyl)-1H-pyrrole-2-carbonyl]-amino}-propionylamino)-hex-2(trans)-enoic acid ethyl ester]",> 10000 nM
5200 M⁻¹ s⁻¹,300 nM,"CCOC(=O)/C=C/[C@H](CCC(N)=O)NC(=O)[C@H](Cc1ccccc1)NC(=O)c1ccc(-c2cc(OC)ccc2OC)[nH]1 [Compound 7, 6-Carbamoyl-4S-(2S-{[5-(2,5-dimethoxy-phenyl)-1H-pyrrole-2-carbonyl]-amino}-3-phenyl-propionylamino)-hex-2-enoic acid ethyl ester]",> 10000 nM
12600 M⁻¹ s⁻¹,,"CCOC(=O)/C=C/[C@H](CCC(N)=O)NC(=O)[C@H](Cc1ccccc1)NC(=O)c1ccc(-c2ccccc2C)[nH]1 [Compound 9, 6-Carbamoyl-4S-{3-phenyl-2S-[(5-o-tolyl-1H-pyrrole-2-carbonyl)-amino]-propionylamino}-hex-2(trans)-enoic acid ethyl ester]",
900 M⁻¹ s⁻¹,,"O=C1OCC/C1=C\[C@H](C[C@@H]1CCNC1=O)NC(=O)C(CC(=O)c1ccc(-c2ccccc2)[nH]1)Cc1ccc(F)cc1 (stereo partly drawn) [Compound 31, 2-(R,S)-(4-Fluorobenzyl)-4-oxo-N-[2-(2-oxo-dihydro-furan-3-ylidine)-1S-(2-oxo-pyrrolidin-3S-ylmethyl)-ethyl]-4-(5-phenyl-1H-pyrrol-2-yl)-butyramide]",
3800 M⁻¹ s⁻¹,1550 nM,"CCOC(=O)/C=C/[C@H](CCC(N)=O)NC(=O)[C@H](CC)NC(=O)c1ccc(-c2ccccc2C(F)(F)F)[nH]1 [Compound 23, 6-Carbamoyl-4S-(2S-{[5-(2-trifluoromethyl-phenyl)-1H-pyrrole-2-carbonyl]-amino}-butyrlamino)-hex-2(trans)-enoic acid ethyl ester]",> 10000 nM
10700 M⁻¹ s⁻¹,500 nM,"CCOC(=O)/C=C/[C@H](CCC(N)=O)NC(=O)[C@H](Cc1ccccc1)N(C)C(=O)c1ccc(-c2ccccc2C(F)(F)F)[nH]1 [Compound 41, 6-Carbamoyl-4S-(2S {methyl-[5-(2-trifluoromethyl-phenyl)-1H-pyrrole-2-carbonyl]-amino}-3-3-phenyl-propionylamino)-hex-2(trans)-enoic acid ethyl ester]",> 10000 nM
2370 M⁻¹ s⁻¹,,"CCOC(=O)/C=C/[C@H](CCC(N)=O)NC(=O)[C@H](Cc1ccccc1)NC(=O)c1ccc(-c2ccccc2)[nH]1 [Compound 10, 6-Carbamoyl-4S-{3-phenyl-2S-[(5-phenyl-1H-pyrrole-2-carbonyl)-amino]-propionylamino}-hex-2(trans)-enoic acid ethyl ester]",
629 M⁻¹ s⁻¹,,"CCOC(=O)/C=C/[C@H](C[C@@H]1CCNC1=O)NC(=O)CCC(=O)c1cccc2ccccc12 [Compound 45, 4-S-(4-Naphthalen-1-yl-4-oxo-butyrylamino)-5-(2-oxo-pyrrolidin-3S-yl)-pent-2-enoic acid ethyl ester]",
1380 M⁻¹ s⁻¹,,"CCOC(=O)/C=C/[C@H](CCC(N)=O)NC(=O)[C@H](Cc1ccccc1)NC(=O)c1ccc(-c2cc(C)no2)[nH]1 [Compound 21, 6-Carbamoyl-4S-(2S-{[5-(3-methyl-isoxazol-5-yl)-1H-pyrrole-2-carbonyl]-amino}-3-phenyl-propionylamino)-hex-2(trans)-enoic acid ethyl ester]",
85 M⁻¹ s⁻¹,,"CCOC(=O)/C=C/[C@H](C[C@@H]1CCNC1=O)NC(=O)CCC(C)=O [Compound 43, 4S-(4-oxo-pentanoylamino)-5-(2-oxo-pyrrolidin-3S-yl)-pent-2-enoic acid ethyl ester]",
5860 M⁻¹ s⁻¹,,"CCOC(=O)/C=C/[C@H](CCC(N)=O)NC(=O)[C@H](Cc1ccccc1)NC(=O)c1ccc(-c2cc(Cl)ccc2OC)[nH]1 [Compound 4, 6-Carbamoyl-4S-(2S-{[5-(5-chloro-2-methoxy-phenyl)-1H-pyrrole-2-carbonyl]amino}-3-phenyl-propionylamino)-hex-2(trans)-enoic acid ethyl ester]",
